Holding throughout (assay): biochemical
Common to all, as to format: biochemical

The target in experiment [1] is T1, 363 human kinases (including Aurora A/B/C) (Homo sapiens, UniProt O15530).
T1 sequence (O15530 1-556): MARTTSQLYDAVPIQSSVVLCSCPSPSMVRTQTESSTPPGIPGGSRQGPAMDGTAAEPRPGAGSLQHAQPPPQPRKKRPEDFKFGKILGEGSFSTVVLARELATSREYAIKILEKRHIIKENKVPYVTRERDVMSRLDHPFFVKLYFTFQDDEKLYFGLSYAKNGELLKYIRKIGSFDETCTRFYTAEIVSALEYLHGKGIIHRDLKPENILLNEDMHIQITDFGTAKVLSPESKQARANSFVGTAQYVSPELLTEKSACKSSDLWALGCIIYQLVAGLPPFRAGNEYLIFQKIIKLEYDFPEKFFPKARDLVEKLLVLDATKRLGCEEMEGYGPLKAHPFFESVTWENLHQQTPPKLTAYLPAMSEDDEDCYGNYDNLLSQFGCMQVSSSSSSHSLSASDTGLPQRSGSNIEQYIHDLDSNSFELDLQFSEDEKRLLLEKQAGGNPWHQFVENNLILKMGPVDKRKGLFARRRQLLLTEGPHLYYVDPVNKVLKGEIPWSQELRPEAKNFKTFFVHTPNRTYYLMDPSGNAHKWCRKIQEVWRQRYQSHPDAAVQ
Conditions: PDK1/PDPK1; for remaining activity at 0.1 µM: 100 nM; for remaining activity at 0.1 µM / remaining activity at 0.5 µM: read-out: % Enzyme Activity (relative to DMSO controls).
Source text: (§1) However, the Aurora A/B selectivity ratios derived from our in vitro and in vivo data can be compared to prioritize inhibitors.

Experiment [2] addresses 363 human kinases (including Aurora A/B/C) (Homo sapiens, UniProt P07947). Conditions: YES/YES1; for remaining activity at 0.1 µM: 100 nM; for remaining activity at 0.1 µM / remaining activity at 0.5 µM: read-out: % Enzyme Activity (relative to DMSO controls).
Source text: as §1
Experiment [3] concerns the target T2, 363 human kinases (including Aurora A/B/C) (Homo sapiens, UniProt Q32MK0).
T2 sequence (Q32MK0 1-819): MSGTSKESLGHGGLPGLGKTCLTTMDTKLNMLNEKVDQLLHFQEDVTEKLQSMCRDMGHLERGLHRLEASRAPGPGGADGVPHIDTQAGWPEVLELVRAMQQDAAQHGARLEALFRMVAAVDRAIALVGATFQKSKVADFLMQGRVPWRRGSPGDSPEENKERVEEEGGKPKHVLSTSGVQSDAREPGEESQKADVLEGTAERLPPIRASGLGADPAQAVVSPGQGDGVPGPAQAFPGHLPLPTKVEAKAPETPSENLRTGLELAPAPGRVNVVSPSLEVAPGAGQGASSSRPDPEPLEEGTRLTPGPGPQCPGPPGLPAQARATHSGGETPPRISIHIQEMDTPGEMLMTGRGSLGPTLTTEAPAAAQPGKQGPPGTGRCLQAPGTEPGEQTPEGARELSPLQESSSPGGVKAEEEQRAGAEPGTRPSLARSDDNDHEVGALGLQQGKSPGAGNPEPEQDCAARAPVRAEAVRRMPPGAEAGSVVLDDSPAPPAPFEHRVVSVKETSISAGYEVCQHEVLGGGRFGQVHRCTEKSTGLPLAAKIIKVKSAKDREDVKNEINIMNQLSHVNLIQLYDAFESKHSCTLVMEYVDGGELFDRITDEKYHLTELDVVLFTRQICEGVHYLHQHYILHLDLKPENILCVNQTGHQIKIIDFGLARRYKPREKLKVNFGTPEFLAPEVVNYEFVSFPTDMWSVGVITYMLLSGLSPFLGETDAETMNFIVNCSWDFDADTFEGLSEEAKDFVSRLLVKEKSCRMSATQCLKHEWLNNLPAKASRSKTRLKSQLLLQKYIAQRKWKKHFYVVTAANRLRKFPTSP
Conditions: MYLK3; for remaining activity at 0.1 µM: 100 nM; for remaining activity at 0.1 µM / remaining activity at 0.5 µM: read-out: % Enzyme Activity (relative to DMSO controls).
Source text: as §1

Experiment [4] concerns the target 363 human kinases (including Aurora A/B/C) (Homo sapiens, UniProt P05771). As to conditions: PKCb1; for remaining activity at 0.1 µM: 100 nM; for remaining activity at 0.1 µM / remaining activity at 0.5 µM: read-out: % Enzyme Activity (relative to DMSO controls).
Source text: as §1
The target in experiment [5] is 363 human kinases (including Aurora A/B/C) (Homo sapiens, UniProt P17948). Conditions: FLT1/VEGFR1, [ATP] 2.5 µM; for remaining activity at 0.1 µM: 100 nM; for remaining activity at 0.1 µM / remaining activity at 0.5 µM: read-out: % Enzyme Activity (relative to DMSO controls).
Source text: as §1
Experiment [6] addresses 363 human kinases (including Aurora A/B/C) (Homo sapiens, UniProt P35968). Conditions: KDR/VEGFR2; for remaining activity at 0.1 µM: 100 nM; for remaining activity at 0.1 µM / remaining activity at 0.5 µM: read-out: % Enzyme Activity (relative to DMSO controls).
Source text: as §1
Experiment [7] deals with 363 human kinases (including Aurora A/B/C) (Homo sapiens, UniProt P08631). Conditions: HCK; for remaining activity at 0.1 µM: 100 nM; for remaining activity at 0.1 µM / remaining activity at 0.5 µM: read-out: % Enzyme Activity (relative to DMSO controls).
Source text: as §1
Experiment [8] concerns the target 363 human kinases (including Aurora A/B/C) (Homo sapiens, UniProt Q86Z02). Conditions: HIPK1; for remaining activity at 0.1 µM: 100 nM; for remaining activity at 0.1 µM / remaining activity at 0.5 µM: read-out: % Enzyme Activity (relative to DMSO controls).
Source text: as §1
For experiment [9], the target named is 363 human kinases (including Aurora A/B/C) (Homo sapiens, UniProt P17612). As to conditions: PKA; for remaining activity at 0.1 µM: 100 nM; for remaining activity at 0.1 µM / remaining activity at 0.5 µM: read-out: % Enzyme Activity (relative to DMSO controls).
Source text: as §1
In experiment [10] the target is 363 human kinases (including Aurora A/B/C) (Homo sapiens, UniProt Q9H422). As to conditions: HIPK3; for remaining activity at 0.1 µM: 100 nM; for remaining activity at 0.1 µM / remaining activity at 0.5 µM: read-out: % Enzyme Activity (relative to DMSO controls).
Source text: as §1
Experiment [11] has as its target T3, 363 human kinases (including Aurora A/B/C) (Homo sapiens, UniProt O15111).
T3 sequence (O15111 1-745): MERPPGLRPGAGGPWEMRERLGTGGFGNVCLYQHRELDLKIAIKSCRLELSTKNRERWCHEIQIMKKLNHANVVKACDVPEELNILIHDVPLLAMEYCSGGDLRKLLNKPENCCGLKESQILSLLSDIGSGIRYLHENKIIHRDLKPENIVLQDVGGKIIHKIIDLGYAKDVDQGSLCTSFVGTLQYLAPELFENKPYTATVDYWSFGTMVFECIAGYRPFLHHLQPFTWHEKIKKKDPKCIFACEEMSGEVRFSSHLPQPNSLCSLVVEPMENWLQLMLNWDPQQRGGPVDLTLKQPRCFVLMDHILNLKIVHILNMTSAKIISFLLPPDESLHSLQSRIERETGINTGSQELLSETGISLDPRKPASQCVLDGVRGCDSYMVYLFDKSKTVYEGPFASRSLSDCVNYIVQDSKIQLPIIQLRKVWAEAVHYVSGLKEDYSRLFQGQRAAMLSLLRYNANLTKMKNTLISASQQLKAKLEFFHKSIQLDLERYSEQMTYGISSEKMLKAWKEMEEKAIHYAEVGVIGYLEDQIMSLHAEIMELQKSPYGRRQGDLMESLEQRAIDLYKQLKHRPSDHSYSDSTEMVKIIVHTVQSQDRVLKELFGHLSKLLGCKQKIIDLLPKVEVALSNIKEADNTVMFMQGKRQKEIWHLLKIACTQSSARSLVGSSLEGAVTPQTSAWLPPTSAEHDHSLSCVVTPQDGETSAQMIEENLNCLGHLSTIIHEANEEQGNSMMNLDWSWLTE
As to conditions: IKKa/CHUK; for remaining activity at 0.1 µM: 100 nM; for remaining activity at 0.1 µM / remaining activity at 0.5 µM: read-out: % Enzyme Activity (relative to DMSO controls).
Source text: as §1

SMILES strings stand for the structures.

Sequence of 363 human kinases (including Aurora A/B/C) (Homo sapiens, UniProt P35968) (P35968 20-1356): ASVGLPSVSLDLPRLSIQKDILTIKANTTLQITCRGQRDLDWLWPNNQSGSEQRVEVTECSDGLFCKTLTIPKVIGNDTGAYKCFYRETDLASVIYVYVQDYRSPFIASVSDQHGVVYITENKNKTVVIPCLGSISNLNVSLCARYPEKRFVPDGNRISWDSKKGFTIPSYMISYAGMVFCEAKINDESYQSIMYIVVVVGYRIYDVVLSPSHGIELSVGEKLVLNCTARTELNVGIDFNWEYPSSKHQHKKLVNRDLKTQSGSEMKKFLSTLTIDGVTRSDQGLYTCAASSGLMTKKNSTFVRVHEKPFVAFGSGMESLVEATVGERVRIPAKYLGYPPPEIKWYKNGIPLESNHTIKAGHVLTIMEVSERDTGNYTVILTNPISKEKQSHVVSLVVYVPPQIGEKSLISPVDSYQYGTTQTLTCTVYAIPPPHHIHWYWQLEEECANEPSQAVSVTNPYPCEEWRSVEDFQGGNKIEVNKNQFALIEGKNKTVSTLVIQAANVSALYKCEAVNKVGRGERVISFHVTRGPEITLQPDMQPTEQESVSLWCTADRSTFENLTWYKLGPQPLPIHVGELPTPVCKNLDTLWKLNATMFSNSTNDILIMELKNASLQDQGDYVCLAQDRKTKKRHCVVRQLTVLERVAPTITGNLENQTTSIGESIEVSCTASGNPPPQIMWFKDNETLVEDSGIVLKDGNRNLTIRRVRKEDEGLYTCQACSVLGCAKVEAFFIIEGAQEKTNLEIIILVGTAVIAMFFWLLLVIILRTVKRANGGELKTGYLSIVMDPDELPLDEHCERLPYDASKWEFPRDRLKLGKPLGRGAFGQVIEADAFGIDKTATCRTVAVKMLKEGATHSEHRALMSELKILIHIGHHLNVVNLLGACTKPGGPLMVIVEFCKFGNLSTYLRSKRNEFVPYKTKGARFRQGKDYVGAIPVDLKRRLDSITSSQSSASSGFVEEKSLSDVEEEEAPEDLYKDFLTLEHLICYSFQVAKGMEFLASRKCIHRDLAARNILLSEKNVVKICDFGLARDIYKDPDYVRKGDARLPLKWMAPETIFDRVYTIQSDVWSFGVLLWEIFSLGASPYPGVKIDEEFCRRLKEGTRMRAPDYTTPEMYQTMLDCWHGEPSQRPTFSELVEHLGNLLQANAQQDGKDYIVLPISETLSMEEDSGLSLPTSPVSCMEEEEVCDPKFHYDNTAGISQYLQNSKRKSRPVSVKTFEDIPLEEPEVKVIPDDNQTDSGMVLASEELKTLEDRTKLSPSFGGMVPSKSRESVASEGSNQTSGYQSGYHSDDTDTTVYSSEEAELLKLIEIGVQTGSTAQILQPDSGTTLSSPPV
Sequence of 363 human kinases (including Aurora A/B/C) (Homo sapiens, UniProt P07947) (P07947 whole entry): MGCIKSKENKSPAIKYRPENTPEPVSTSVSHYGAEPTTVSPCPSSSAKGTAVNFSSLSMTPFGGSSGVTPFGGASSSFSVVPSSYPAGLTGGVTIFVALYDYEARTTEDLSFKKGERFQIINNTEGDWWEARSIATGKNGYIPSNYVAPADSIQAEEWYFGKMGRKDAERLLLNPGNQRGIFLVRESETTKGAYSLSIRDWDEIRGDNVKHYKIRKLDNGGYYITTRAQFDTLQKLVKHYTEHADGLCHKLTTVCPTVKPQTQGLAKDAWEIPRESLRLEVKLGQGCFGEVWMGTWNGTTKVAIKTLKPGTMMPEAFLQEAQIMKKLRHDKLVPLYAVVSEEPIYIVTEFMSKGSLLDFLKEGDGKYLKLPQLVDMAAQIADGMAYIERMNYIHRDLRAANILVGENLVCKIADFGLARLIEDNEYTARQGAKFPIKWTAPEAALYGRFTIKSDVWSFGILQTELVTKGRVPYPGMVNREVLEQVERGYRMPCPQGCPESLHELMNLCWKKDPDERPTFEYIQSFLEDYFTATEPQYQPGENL
Sequence of 363 human kinases (including Aurora A/B/C) (Homo sapiens, UniProt P17948) (P17948 27-1338): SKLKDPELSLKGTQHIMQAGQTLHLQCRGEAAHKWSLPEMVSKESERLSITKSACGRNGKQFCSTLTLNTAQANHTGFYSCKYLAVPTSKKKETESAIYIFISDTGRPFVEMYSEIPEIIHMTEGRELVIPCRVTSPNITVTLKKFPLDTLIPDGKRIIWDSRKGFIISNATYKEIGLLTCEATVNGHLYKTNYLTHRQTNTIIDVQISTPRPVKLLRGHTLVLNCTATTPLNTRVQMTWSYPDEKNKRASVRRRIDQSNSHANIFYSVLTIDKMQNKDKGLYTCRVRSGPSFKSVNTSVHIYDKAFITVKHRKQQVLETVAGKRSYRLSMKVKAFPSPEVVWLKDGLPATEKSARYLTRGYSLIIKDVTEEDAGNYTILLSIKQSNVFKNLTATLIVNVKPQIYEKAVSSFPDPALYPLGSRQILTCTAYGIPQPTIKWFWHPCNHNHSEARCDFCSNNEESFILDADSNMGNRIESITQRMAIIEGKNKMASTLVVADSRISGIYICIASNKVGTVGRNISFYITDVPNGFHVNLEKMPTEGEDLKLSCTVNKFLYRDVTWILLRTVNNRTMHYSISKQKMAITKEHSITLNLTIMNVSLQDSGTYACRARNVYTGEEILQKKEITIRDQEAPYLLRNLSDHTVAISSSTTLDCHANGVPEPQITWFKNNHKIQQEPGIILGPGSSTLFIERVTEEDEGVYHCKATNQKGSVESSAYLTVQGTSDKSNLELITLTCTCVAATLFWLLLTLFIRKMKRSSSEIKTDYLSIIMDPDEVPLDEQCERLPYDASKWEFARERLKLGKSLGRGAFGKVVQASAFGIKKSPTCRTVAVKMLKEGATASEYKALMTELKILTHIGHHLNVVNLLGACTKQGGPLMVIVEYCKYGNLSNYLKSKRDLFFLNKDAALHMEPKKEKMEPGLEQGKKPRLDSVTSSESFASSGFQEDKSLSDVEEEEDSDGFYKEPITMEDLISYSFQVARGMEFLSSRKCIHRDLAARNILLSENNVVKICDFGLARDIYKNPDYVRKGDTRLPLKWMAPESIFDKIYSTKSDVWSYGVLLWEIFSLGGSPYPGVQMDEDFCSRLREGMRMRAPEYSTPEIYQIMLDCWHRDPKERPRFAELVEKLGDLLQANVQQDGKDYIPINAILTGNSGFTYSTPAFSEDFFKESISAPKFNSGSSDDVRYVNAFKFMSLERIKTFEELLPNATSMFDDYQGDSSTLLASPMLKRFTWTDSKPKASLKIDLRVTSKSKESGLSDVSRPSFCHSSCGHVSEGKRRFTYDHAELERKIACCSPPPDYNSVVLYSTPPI
Sequence of 363 human kinases (including Aurora A/B/C) (Homo sapiens, UniProt Q9H422) (Q9H422 whole entry): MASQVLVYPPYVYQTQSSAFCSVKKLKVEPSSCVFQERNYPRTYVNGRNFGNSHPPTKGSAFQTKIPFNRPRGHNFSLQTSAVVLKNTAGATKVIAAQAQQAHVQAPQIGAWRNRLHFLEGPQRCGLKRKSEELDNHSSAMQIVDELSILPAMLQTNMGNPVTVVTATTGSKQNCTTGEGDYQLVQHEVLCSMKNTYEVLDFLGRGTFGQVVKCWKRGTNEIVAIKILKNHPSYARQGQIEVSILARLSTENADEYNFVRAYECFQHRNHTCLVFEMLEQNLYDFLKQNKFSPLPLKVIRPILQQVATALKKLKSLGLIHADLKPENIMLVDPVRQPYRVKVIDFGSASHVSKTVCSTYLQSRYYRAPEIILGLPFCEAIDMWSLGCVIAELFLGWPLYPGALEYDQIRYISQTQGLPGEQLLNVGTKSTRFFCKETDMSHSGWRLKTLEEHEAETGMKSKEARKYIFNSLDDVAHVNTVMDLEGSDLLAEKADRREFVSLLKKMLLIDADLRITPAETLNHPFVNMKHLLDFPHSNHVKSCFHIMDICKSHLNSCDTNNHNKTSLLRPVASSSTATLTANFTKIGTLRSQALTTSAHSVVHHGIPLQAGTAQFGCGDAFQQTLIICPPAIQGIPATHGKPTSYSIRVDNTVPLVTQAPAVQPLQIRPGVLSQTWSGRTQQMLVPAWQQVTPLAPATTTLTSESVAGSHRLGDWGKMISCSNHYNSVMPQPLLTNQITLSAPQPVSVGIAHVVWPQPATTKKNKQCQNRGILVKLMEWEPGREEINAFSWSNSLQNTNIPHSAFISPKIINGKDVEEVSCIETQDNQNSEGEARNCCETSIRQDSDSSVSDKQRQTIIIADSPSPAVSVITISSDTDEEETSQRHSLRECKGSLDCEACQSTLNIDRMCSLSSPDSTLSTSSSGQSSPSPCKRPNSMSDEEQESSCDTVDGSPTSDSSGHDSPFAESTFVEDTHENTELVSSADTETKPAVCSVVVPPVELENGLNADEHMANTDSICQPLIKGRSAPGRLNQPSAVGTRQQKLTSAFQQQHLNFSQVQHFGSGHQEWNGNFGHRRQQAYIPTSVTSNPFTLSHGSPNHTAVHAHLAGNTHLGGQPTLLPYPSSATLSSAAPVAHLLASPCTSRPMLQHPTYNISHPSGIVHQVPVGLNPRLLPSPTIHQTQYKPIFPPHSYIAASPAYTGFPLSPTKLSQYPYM
Sequence of 363 human kinases (including Aurora A/B/C) (Homo sapiens, UniProt P05771) (P05771 whole entry): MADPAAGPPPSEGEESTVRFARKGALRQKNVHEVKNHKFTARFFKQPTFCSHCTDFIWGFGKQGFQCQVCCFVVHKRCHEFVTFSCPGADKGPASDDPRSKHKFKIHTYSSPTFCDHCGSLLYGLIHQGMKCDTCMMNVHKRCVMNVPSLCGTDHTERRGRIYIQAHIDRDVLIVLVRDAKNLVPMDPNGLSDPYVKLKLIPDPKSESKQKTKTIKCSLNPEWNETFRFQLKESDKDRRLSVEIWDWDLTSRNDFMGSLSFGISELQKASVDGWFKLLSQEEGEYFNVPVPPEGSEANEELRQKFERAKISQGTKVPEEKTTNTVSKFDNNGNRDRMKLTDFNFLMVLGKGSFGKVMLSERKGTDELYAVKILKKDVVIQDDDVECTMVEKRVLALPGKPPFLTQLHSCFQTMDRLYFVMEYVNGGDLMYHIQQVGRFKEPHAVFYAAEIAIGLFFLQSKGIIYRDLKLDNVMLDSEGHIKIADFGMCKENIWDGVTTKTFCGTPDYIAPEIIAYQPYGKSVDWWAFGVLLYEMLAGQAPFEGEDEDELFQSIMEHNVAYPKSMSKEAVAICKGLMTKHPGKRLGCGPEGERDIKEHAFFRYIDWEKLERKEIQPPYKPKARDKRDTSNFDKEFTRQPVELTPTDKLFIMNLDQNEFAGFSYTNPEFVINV

On to `CCn1cc(-c2ccnc3[nH]c(-c4cccc(CN(C)C)c4)cc23)c(-c2ccc(NC(=O)N(C)C)cc2)n1` [GSK1070916], for which the remaining activity at 0.1 µM in [1] worked out at 94%; in experiment [2], 69.3%; in experiment [3], 102%; in experiment [4] it was 98.6%; in [5], 64.4%; in experiment [6], 87.5%. Further, the remaining activity at 0.1 µM in experiment [7] stood at 102%; in [8] it was 99.2%; in [9] it was 95.5%; in experiment [10] it was 106%; in [11], 126%.
As for `O=C(O)[C@]1(Cc2cccc(Nc3nccs3)n2)CC[C@@H](Oc2cccc(Cl)c2F)CC1` [MK-5108], the remaining activity at 0.1 µM in experiment [1] is 98.7%; in [2] it was 31.3%; in experiment [3], 97.3%; in experiment [4] it was 87.4%; in experiment [5] it was 58.4%; in [6], 36.8%. Also, the remaining activity at 0.1 µM in [7] amounted to 46.1%; in [8] it was 96.7%; in [9], 100%; in [10], 97%; in experiment [11], 118%. Moreover, the remaining activity at 0.5 µM is 88.8% in experiment [1] (500 nM); 9.25% in experiment [2] (500 nM); 99.7% in [3] (500 nM); 74% in [4] (500 nM); 29.5% in [5] (500 nM); 13.1% in experiment [6] (500 nM). Moreover, the remaining activity at 0.5 µM in experiment [7] (500 nM) amounted to 20.2%; in experiment [8] (500 nM) it was 67.8%; in experiment [9] (500 nM) it was 96.4%; in experiment [10] (500 nM) it was 70%; in experiment [11] (500 nM), 113%.
For the molecule `O=C(c1cccc(Cl)c1F)N1CCN(Cc2cccc(Nc3nccs3)n2)CC1` [MK-8745], the “% Enzyme Activity (relative to DMSO controls)” value in experiment [1] (500 nM) worked out at 93.63%; in experiment [2] (500 nM) it was 33.63%; in experiment [3] (500 nM) it was 102.40%; in experiment [4] (500 nM), 96.23%; in experiment [5] (500 nM), 90.99%; in [6] (500 nM), 96.11%. The “% Enzyme Activity (relative to DMSO controls)” value in experiment [7] (500 nM) is 52.42%; in experiment [8] (500 nM), 90.76%; in [9] (500 nM), 96.39%; in experiment [10] (500 nM), 105.35%; in [11] (500 nM), 107.82%. In addition, the remaining activity at 0.5 µM was 94.7% in experiment [1] (500 nM); 34.6% in [2] (500 nM); 103% in [3] (500 nM); 98.2% in experiment [4] (500 nM); 93.4% in experiment [5] (500 nM); 96.7% in experiment [6] (500 nM). Besides, the remaining activity at 0.5 µM turned out to be 53.9% in experiment [7] (500 nM); 90.8% in [8] (500 nM); 98.9% in experiment [9] (500 nM); 105% in experiment [10] (500 nM); 114% in [11] (500 nM).

The values above are taken from PMC4685510, “A Cell Biologist’s Field Guide to Aurora Kinase Inhibitors” (Frontiers in Oncology, 2015).
